According to PubChem BioAssay AID1918995 (Molecular Pharmacology Branch, DTP, NCI, 2023):
Where “and” joins values, the source holds several entries; their conditions need not be identical. Equal values may be shown once. Blank lines part the entries; values can stand above or below the compound they belong to.

Tested on: 324938-238-R-J1-PDC complex spheroid growth, % test/control
Assay: Anticancer human tumor 324938-238-R-J1-PDC patient-derived bladder carcinoma cell line growth inhibition [AhR]
Settings: for viability, T/C: stronger effect = lower value
How it was run: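 Complex tumor spheroids co-cultured with HUVEC and human MSC stroma; AhR antagonists tested in combination with standard-of-care and investigational agents. Top concentration at or near clinical Cmax (else 10 microM), half-log dilutions; growth expressed as percent test/control.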

[1] = curve of first compound, second compound 0.1 µM
[2] = curve of first compound, second compound 0.316 µM
[3] = curve of first compound, second compound 1 µM
[4] = curve of first compound, second compound 3.16 µM
[5] = curve of first compound, second compound 10 µM
[6] = second compound 0.1 µM, first compound 0.0316 µM
[7] = second compound 0.1 µM, first compound 0.1 µM
[8] = second compound 0.1 µM, first compound 0.316 µM
[9] = second compound 0.1 µM, first compound 1 µM
[10] = second compound 0.1 µM, first compound 3.16 µM
[11] = second compound 0.1 µM, first compound 10 µM
[12] = second compound 0.316 µM, first compound 0.0316 µM
[13] = second compound 0.316 µM, first compound 0.1 µM
[14] = second compound 0.316 µM, first compound 0.316 µM
[15] = second compound 0.316 µM, first compound 1 µM
[16] = second compound 0.316 µM, first compound 3.16 µM
[17] = second compound 0.316 µM, first compound 10 µM
[18] = second compound 1 µM, first compound 0.0316 µM
[19] = second compound 1 µM, first compound 0.1 µM
[20] = second compound 1 µM, first compound 0.316 µM
[21] = second compound 1 µM, first compound 1 µM
[22] = second compound 1 µM, first compound 3.16 µM
[23] = second compound 1 µM, first compound 10 µM
[24] = second compound 3.16 µM, first compound 0.0316 µM
[25] = second compound 3.16 µM, first compound 0.1 µM
[26] = second compound 3.16 µM, first compound 0.316 µM
[27] = second compound 3.16 µM, first compound 1 µM
[28] = second compound 3.16 µM, first compound 3.16 µM
[29] = second compound 3.16 µM, first compound 10 µM
[30] = second compound 10 µM, first compound 0.0316 µM
[31] = second compound 10 µM, first compound 0.1 µM
[32] = second compound 10 µM, first compound 0.316 µM
[33] = second compound 10 µM, first compound 1 µM
[34] = second compound 10 µM, first compound 3.16 µM
[35] = second compound 10 µM, first compound 10 µM
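Further: spheroids exposed to agents for seven days before viability read.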

- IC50 [1]: 1.78 nM
- IC50 [2]: 1.69 nM
- IC50 [3]: 1.75 nM
- IC50 [4]: 1.4 nM
- IC50 [5]: 1.37 nM
SMILES: CC(C)CC(NC(=O)C(Cc1ccccc1)NC(=O)c1cnccn1)B(O)O (stereo not given) + CC(CO)NC(=O)c1cc(-c2ccc(Cl)cc2)nn(-c2cnn(C)c2)c1=O
- viability, T/C (second compound 0.1 µM, first compound 0.000949 µM): 89%
- viability, T/C (second compound 0.1 µM, first compound 0.003 µM): 18.1%
- viability, T/C (second compound 0.1 µM, first compound 0.00949 µM): 0.1%
- viability, T/C (second compound 0.1 µM, first compound 0.03 µM): 0.06%
- viability, T/C (second compound 0.1 µM, first compound 0.0949 µM): 0.07%
- viability, T/C (second compound 0.1 µM, first compound 0.3 µM): 0.21%
- viability, T/C (second compound 0.316 µM, first compound 0.000949 µM): 85.8%
- viability, T/C (second compound 0.316 µM, first compound 0.003 µM): 14.3%
- viability, T/C (second compound 0.316 µM, first compound 0.00949 µM): 0.09%
- viability, T/C (second compound 0.316 µM, first compound 0.03 µM): 0.06%
- viability, T/C (second compound 0.316 µM, first compound 0.0949 µM): 0.07%
- viability, T/C (second compound 0.316 µM, first compound 0.3 µM): 0.16%
- viability, T/C (second compound 1 µM, first compound 0.000949 µM): 86.2%
- viability, T/C (second compound 1 µM, first compound 0.003 µM): 18.1%
- viability, T/C (second compound 1 µM, first compound 0.00949 µM): 0.13%
- viability, T/C (second compound 1 µM, first compound 0.03 µM): 0.12%
- viability, T/C (second compound 1 µM, first compound 0.0949 µM): 0.05%
- viability, T/C (second compound 1 µM, first compound 0.3 µM): 0.17%
- viability, T/C (second compound 3.16 µM, first compound 0.000949 µM): 69.1%
- viability, T/C (second compound 3.16 µM, first compound 0.003 µM): 13.6%
- viability, T/C (second compound 3.16 µM, first compound 0.00949 µM): 0.13%
- viability, T/C (second compound 3.16 µM, first compound 0.03 µM): 0.07%
- viability, T/C (second compound 3.16 µM, first compound 0.0949 µM): 0.07%
- viability, T/C (second compound 3.16 µM, first compound 0.3 µM): 0.17%
- viability, T/C (second compound 10 µM, first compound 0.000949 µM): 67.1%
- viability, T/C (second compound 10 µM, first compound 0.003 µM): 14.8%
- viability, T/C (second compound 10 µM, first compound 0.00949 µM): 0.23%
- viability, T/C (second compound 10 µM, first compound 0.03 µM): 0.2%
- viability, T/C (second compound 10 µM, first compound 0.0949 µM): 0.2%
- viability, T/C (second compound 10 µM, first compound 0.3 µM): 0.32%

- IC50 (curve of compound): > 10000 nM and 5910 nM and 2940 nM
SMILES: CC1COCCN1c1cc(C2(S(C)(=N)=O)CC2)nc(-c2ccnc3[nH]ccc23)n1 (stereo not given)
- viability, T/C (compound 0.0316 µM): 93% and 98% and 106%
- viability, T/C (compound 0.1 µM): 114% and 112% and 116%
- viability, T/C (compound 0.316 µM): 90% and 106% and 85.7%
- viability, T/C (compound 1 µM): 93.9% and 90.2% and 86.4%
- viability, T/C (compound 3.16 µM): 76.7% and 70.4% and 43.9%
- viability, T/C (compound 10 µM): 77.1% and 33.6% and 25.4%

- IC50 [1]: 351 nM
- IC50 [2]: 427 nM
- IC50 [3]: 441 nM
- IC50 [4]: 243 nM
- IC50 [5]: 171 nM
SMILES: COc1cc(C2c3cc4c(cc3C(OC3OC5COC(C)OC5C(O)C3O)C3COC(=O)C23)OCO4)cc(OC)c1O (stereo not given) + CC(CO)NC(=O)c1cc(-c2ccc(Cl)cc2)nn(-c2cnn(C)c2)c1=O
- viability, T/C [6]: 92.8%
- viability, T/C [7]: 96%
- viability, T/C [8]: 52.4%
- viability, T/C [9]: 30.1%
- viability, T/C [10]: 26.8%
- viability, T/C [11]: 21.3%
- viability, T/C [12]: 101%
- viability, T/C [13]: 90.3%
- viability, T/C [14]: 56.9%
- viability, T/C [15]: 30.3%
- viability, T/C [16]: 28.6%
- viability, T/C [17]: 23.4%
- viability, T/C [18]: 95.6%
- viability, T/C [19]: 94.9%
- viability, T/C [20]: 58.2%
- viability, T/C [21]: 30.2%
- viability, T/C [22]: 31.5%
- viability, T/C [23]: 21.7%
- viability, T/C [24]: 70.6%
- viability, T/C [25]: 73.9%
- viability, T/C [26]: 43.4%
- viability, T/C [27]: 30.8%
- viability, T/C [28]: 28.8%
- viability, T/C [29]: 22.7%
- viability, T/C [30]: 66.7%
- viability, T/C [31]: 57%
- viability, T/C [32]: 41.2%
- viability, T/C [33]: 36.5%
- viability, T/C [34]: 32.7%
- viability, T/C [35]: 23.9%

- IC50 [1]: < 31.6 nM
- IC50 [2]: < 31.6 nM
- IC50 [3]: < 31.6 nM
- IC50 [4]: < 31.6 nM
- IC50 [5]: < 31.6 nM
SMILES: COc1cccc2c1C(=O)c1c(O)c3c(c(O)c1C2=O)CC(O)(C(=O)CO)CC3OC1CC(N)C(O)C(C)O1 (stereo not given) + CC(CO)NC(=O)c1cc(-c2ccc(Cl)cc2)nn(-c2cnn(C)c2)c1=O
- viability, T/C [6]: 33.5%
- viability, T/C [7]: 29.2%
- viability, T/C [8]: 17.7%
- viability, T/C [9]: 2.6%
- viability, T/C [10]: 0.09%
- viability, T/C [11]: 0.19%
- viability, T/C [12]: 34.6%
- viability, T/C [13]: 28.6%
- viability, T/C [14]: 16.8%
- viability, T/C [15]: 3.87%
- viability, T/C [16]: 0.08%
- viability, T/C [17]: 0.19%
- viability, T/C [18]: 32.9%
- viability, T/C [19]: 30.9%
- viability, T/C [20]: 15.5%
- viability, T/C [21]: 1.51%
- viability, T/C [22]: 0.09%
- viability, T/C [23]: 0.19%
- viability, T/C [24]: 31%
- viability, T/C [25]: 36.1%
- viability, T/C [26]: 19.6%
- viability, T/C [27]: 1.04%
- viability, T/C [28]: 0.09%
- viability, T/C [29]: 0.68%
- viability, T/C [30]: 39.8%
- viability, T/C [31]: 35.4%
- viability, T/C [32]: 16.8%
- viability, T/C [33]: 0.25%
- viability, T/C [34]: 0.24%
- viability, T/C [35]: 0.29%

- IC50 [1]: 336 nM
- IC50 [2]: 367 nM
- IC50 [3]: 291 nM
- IC50 [4]: 181 nM
- IC50 [5]: < 31.6 nM
SMILES: COc1cccc2c1C(=O)c1c(O)c3c(c(O)c1C2=O)CC(O)(C(=O)CO)CC3OC1CC(N)C(O)C(C)O1 (stereo not given) + Cc1cncc(-c2nc(NCCc3c[nH]c4ccccc34)c3ncn(C(C)C)c3n2)c1
- viability, T/C [6]: 84.2%
- viability, T/C [7]: 95.7%
- viability, T/C [8]: 52.8%
- viability, T/C [9]: 0.98%
- viability, T/C [10]: 0.76%
- viability, T/C [11]: 0.41%
- viability, T/C [12]: 65.7%
- viability, T/C [13]: 94.2%
- viability, T/C [14]: 57.3%
- viability, T/C [15]: 0.94%
- viability, T/C [16]: 0.57%
- viability, T/C [17]: 0.38%
- viability, T/C [18]: 90.7%
- viability, T/C [19]: 102%
- viability, T/C [20]: 46.3%
- viability, T/C [21]: 0.36%
- viability, T/C [22]: 1.27%
- viability, T/C [23]: 0.47%
- viability, T/C [24]: 81.8%
- viability, T/C [25]: 62.1%
- viability, T/C [26]: 38.9%
- viability, T/C [27]: 0.31%
- viability, T/C [28]: 1.98%
- viability, T/C [29]: 0.43%
- viability, T/C [30]: 4.55%
- viability, T/C [31]: 12.7%
- viability, T/C [32]: 1.27%
- viability, T/C [33]: 0.29%
- viability, T/C [34]: 0.45%
- viability, T/C [35]: 0.62%

SMILES: CC1COCCN1c1cc(-c2ccnn2C)c2ccnc(-c3ccn[nH]3)c2n1 (stereo not given)
- viability, T/C (compound 0.00316 µM): 98.3% and 108% and 107%
- viability, T/C (compound 0.01 µM): 92.6% and 112% and 110%
- viability, T/C (compound 0.0316 µM): 67.5% and 99.7% and 66.6%
- viability, T/C (compound 0.1 µM): 55.1% and 76.3% and 45%
- viability, T/C (compound 0.316 µM): 83.7% and 48.9% and 31.1%
- viability, T/C (compound 1 µM): 68.1% and 27.7% and 19.9%

- IC50 (curve of compound): > 100 nM and 78.1 nM
SMILES: Cn1ncnc1C1c2n[nH]c(=O)c3cc(F)cc(c23)NC1c1ccc(F)cc1 (stereo not given)
- viability, T/C (compound 0.000316 µM): 107% and 101% and 111%
- viability, T/C (compound 0.001 µM): 100% and 105% and 98%
- viability, T/C (compound 0.00316 µM): 92.3% and 101% and 90.6%
- viability, T/C (compound 0.01 µM): 97.1% and 74.3% and 87.5%
- viability, T/C (compound 0.0316 µM): 98% and 79.1% and 61.1%
- viability, T/C (compound 0.1 µM): 89.5% and 65.1% and 46.1%
